The test system of assay [1] is Mtb IZAK (multidrug-resistant clinical isolate). As to the kind of experiment: microbe, parasite or virus in culture. It counts as cell-based, Mycobacterium tuberculosis. The following applies: for MIC: Mycobacterium tuberculosis, read-out: Mtb IZAK MIC; for Mtb IZAK susceptibility class (R/S): MDR clinical isolate.
The subject of assay [2] is Mtb MATI (multidrug-resistant clinical isolate). The assay can be described thus: microbe, parasite or virus in culture. It counts as cell-based, Mycobacterium tuberculosis. The following applies: for MIC: Mycobacterium tuberculosis, read-out: Mtb MATI MIC; for Mtb MATI susceptibility class (R/S): MDR clinical isolate.
In assay [3] the test system is Mtb laboratory ID IZAK. As to conditions: MDR clinical isolate; external resistance profiling; cited from earlier work.
The test system of assay [4] is Mtb laboratory ID MATI. The following applies: MDR clinical isolate; external resistance profiling; cited from earlier work.

Converted amounts (≈) assume the structure as drawn.

In the case of `Cc1ccc(C(=O)Nc2nccnc2C(N)=O)cc1` [Compound 4], the MIC in assay [1] and in assay [2] was 12.5 µg/mL (≈ 48.8 µM) in each case.
Consider `NC(=O)c1nccnc1NC(=O)c1ccc(F)cc1` [Compound 12], for which the MIC in assay [1] and in assay [2] was 100 µg/mL (≈ 384 µM) in each case.
On to `NC(=O)c1cnccn1` [PZA, pyrazinamide], for which, in assay [1], the “Mtb IZAK susceptibility class (R/S)” value is given as “R”. The “Mtb MATI susceptibility class (R/S)” value in assay [2] is reported as “R”. Also, the “Mtb IZAK MIC, value from external resistance profiling (*)” value (from here on “Mtb IZAK MIC, value”) in assay [3] was > 16 µg/mL. The “Mtb MATI MIC, value from external resistance profiling (*)” value (from here on “Mtb MATI MIC, value”) in assay [4] is recorded as > 128 µg/mL.
In the case of `NC(=O)c1nccnc1NC(=O)c1ccc(Br)cc1` [Compound 18], the MIC in assay [1] and in assay [2] was 12.5 µg/mL (≈ 38.9 µM) each time.
As for `NC(=O)c1nccnc1NC(=O)c1ccc(Cl)cc1` [Compound 15], the MIC in assay [1] and in assay [2] was 12.5 µg/mL (≈ 45.2 µM) in each case.
As for `[H]/N=C(/N)N[C@H]1[C@H](O)[C@@H](O)[C@H](O[C@@H]2O[C@@H](C)[C@](O)(C=O)[C@H]2O[C@@H]2O[C@@H](CO)[C@H](O)[C@@H](O)[C@@H]2NC)[C@@H](N/C(N)=N\[H])[C@@H]1O` [STM, streptomycin], the “Mtb IZAK susceptibility class (R/S)” value in assay [1] is recorded as “R”. Also, the “Mtb MATI susceptibility class (R/S)” value in assay [2] was “R”. Besides, in assay [3], the “Mtb IZAK MIC, value” value is on record as 4 µg/mL. Further, the “Mtb MATI MIC, value” value in assay [4] is reported as > 16 µg/mL.
Consider `CC[C@@H](CO)NCCN[C@@H](CC)CO` [EMB, ethambutol], for which, in assay [1], the “Mtb IZAK susceptibility class (R/S)” value is on record as “S” and the MIC came out at 0.39 µg/mL (≈ 1.91 µM). Also, in assay [2], the “Mtb MATI susceptibility class (R/S)” value is given as “S” and the MIC amounted to 0.39 µg/mL (≈ 1.91 µM). The “Mtb IZAK MIC, value” value in assay [3] is on record as 0.5 µg/mL. The “Mtb MATI MIC, value” value in assay [4] is recorded as 0.5 µg/mL.
As for `NNC(=O)c1ccncc1` [INH, isoniazid], in assay [1], the “Mtb IZAK susceptibility class (R/S)” value is reported as “R” and the MIC was 4 µg/mL (≈ 29.2 µM). Also, in assay [2], the “Mtb MATI susceptibility class (R/S)” value is “R” and the MIC is > 8 µg/mL.
With `CO[C@H]1/C=C/O[C@@]2(C)Oc3c(C)c(O)c4c(O)c(c(/C=N/N5CCN(C)CC5)c(O)c4c3C2=O)NC(=O)/C(C)=C\C=C\[C@H](C)[C@H](O)[C@@H](C)[C@@H](O)[C@@H](C)[C@H](OC(C)=O)[C@@H]1C` [RIF, rifampicin], in assay [1], the “Mtb IZAK susceptibility class (R/S)” value is recorded as “R”. The “Mtb MATI susceptibility class (R/S)” value in assay [2] is reported as “R”. The “Mtb IZAK MIC, value” value in assay [3] is reported as > 8 µg/mL. In addition, the “Mtb MATI MIC, value” value in assay [4] was > 8 µg/mL.

The values are drawn from paper PMC9687610, “Adenosine-Mimicking Derivatives of 3-Aminopyrazine-2-Carboxamide: Towards Inhibitors of Prolyl-tRNA Synthetase with Antimycobacterial Activity” (Biomolecules, 2022).
